The values that follow come from patent US6677338B2, “Serotonin transport inhibitors” (President and Fellows of Harvard College, priority 1997, dated 2004).

Molecules are shown by their SMILES. “Also recorded” adds a separate entry of the source. Where two headings read alike, the source gives them in different places.

Data set [1] deals with T1, Dopamine transporter (DAT) (Macaca fascicularis, UniProt Q9GJT6).
T1 construct: in monkey striatum homogenates; from tissue; host or cells: monkey striatum homogenate
Description: (3H)CFT competition binding in monkey striatum homogenates. The protocol: (§1) Values were determined by fitting data to the equation for competitive binding with EBDA computer program. Data represent the mean ±S.D. of two or more experiments.

In data set [2] the target is T2, human SERT (Homo sapiens, UniProt P31645).
T2 construct: expressed in transfected cells; host or cells: HEK-293 (stably or transiently transfected, pcDNA3.1 vector)
The data set is described as follows: (3H)citalopram binding in HEK-293 cells transfected with the human SERT.

Data set [3] concerns the target T3, Serotonin transporter (SERT) (Macaca mulatta, UniProt Q9MYX0).
T3 construct: in monkey striatum homogenates; from tissue; host or cells: monkey striatum homogenate
The data set is described as follows: (3H)citalopram competition binding in monkey striatum homogenates. The following applies: for SERT/DAT Selectivity: fold selectivity for serotonin over dopamine transporter. The protocol:
Initial screening procedures for non-amines were conducted in primate striatum, a standard source of brain transporters for drug screening and for generating structure-activity relationships for this series (Table 1). […] The binding experiments were terminated by rapid filtration and radioactivity measured as described above. […] The experiments were performed in triplicate and each value is the mean ±S.E. of 2-5 independent experiments.
as §1

In data set [4] the target is T2, human SERT. The data set is described as follows: (3H)serotonin transport in HEK-293 cells transfected with the human SERT. Format: cell-based. The following applies: for blocked (3H)serotonin transport (in words): comparable to imipramine, fluoxetine and amitriptyline.
Where [5] appears, read: monkey striatum, 1 nM (3H)CFT, mean ± S.D., read-out: Dopamine transporter (DAT) IC50.
Setting [6] is: (3H)serotonin transport Ki, HEK-293 cells with human SERT, 20 nM (3H)serotonin, mean ± S.E.M.
[7] abbreviates: HEK-293 cells with human SERT, 1 nM (3H)citalopram, mean ± S.E.M., read-out: (3H)citalopram binding Ki.

T2 sequence (P31645 whole entry): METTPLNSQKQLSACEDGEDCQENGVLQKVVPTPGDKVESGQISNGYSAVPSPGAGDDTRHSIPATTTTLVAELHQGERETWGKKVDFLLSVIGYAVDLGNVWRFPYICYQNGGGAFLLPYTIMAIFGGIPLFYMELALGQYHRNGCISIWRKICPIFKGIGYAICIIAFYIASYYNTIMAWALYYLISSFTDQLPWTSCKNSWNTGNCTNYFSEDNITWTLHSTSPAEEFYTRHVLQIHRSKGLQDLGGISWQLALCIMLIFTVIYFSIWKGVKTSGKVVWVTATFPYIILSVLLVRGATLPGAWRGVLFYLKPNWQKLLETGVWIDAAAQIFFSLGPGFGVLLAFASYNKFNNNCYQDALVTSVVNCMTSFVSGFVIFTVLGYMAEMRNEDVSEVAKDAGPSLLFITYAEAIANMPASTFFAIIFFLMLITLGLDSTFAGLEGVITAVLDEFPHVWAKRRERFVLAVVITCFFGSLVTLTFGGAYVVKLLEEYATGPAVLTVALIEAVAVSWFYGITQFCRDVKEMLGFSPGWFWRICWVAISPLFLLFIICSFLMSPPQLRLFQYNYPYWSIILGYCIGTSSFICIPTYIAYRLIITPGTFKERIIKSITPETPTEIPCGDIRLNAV
T3 sequence (Q9MYX0 whole entry): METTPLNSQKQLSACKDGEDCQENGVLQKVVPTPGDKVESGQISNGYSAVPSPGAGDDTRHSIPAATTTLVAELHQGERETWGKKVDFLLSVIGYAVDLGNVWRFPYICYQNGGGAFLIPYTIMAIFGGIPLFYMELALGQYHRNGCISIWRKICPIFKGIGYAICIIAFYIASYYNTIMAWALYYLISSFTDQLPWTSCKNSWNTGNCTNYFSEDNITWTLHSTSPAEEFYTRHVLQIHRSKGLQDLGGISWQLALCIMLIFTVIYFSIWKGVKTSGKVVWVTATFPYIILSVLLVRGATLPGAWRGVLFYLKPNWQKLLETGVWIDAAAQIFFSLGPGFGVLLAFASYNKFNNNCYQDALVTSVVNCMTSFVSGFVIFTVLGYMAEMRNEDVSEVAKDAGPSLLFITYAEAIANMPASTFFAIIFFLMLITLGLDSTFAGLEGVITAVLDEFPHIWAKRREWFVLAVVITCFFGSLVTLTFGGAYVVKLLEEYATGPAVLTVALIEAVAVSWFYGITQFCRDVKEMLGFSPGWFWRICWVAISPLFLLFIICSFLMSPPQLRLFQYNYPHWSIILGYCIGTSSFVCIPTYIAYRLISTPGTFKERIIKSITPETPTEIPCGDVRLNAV
T1 sequence (Q9GJT6 whole entry): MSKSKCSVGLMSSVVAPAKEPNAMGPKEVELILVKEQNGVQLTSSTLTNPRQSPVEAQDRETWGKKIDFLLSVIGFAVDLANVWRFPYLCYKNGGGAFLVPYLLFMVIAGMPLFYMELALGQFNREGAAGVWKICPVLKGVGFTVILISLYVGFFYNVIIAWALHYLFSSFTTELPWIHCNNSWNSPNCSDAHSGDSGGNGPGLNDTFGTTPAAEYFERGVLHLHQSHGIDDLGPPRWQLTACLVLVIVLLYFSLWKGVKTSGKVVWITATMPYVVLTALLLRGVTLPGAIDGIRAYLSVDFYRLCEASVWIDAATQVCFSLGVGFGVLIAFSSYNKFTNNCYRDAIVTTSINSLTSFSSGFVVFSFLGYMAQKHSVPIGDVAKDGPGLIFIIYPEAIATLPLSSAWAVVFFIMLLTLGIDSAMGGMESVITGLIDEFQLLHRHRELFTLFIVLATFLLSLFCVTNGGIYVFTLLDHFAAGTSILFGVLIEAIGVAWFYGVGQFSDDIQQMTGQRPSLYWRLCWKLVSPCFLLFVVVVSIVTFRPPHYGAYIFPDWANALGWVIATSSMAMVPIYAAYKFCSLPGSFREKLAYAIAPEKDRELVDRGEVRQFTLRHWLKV

The IC50 is the concentration that inhibits the measured activity by half. Broadly, the Ki is the equilibrium dissociation constant of an inhibitor or competing ligand from its target. In general, melting point refers to the temperature of the solid-liquid transition. Molecule `C=C(C)c1ccc(C2CC3CCC(O3)C2C(=O)OC)cc1` (racemic) [Compound O-1739, 2β-carbomethoxy-3β-(4-isopropenylphenyl)-8-oxabicyclo(3.2.1)octane] registered a melting point of 72.3 to 73.3 °C. Also, in data set [1] (setting [5]), the IC50 was determined as 1020 nM. This molecule also showed a Ki at human SERT [2] of 17.7 ± 6.3 nM. The molecule further had an IC50 in data set [3] of 19.8 ± 0.75 nM. For the same molecule, the “SERT/DAT Selectivity” value in data set [3] (monkey striatum) is 52. Moreover, the Ki on human SERT [4] (setting [6]) turned out to be 33 ± 2 nM. In addition, on human SERT [4], the “blocked (3H)serotonin transport (in words)” value (“blocked” for short) is listed as “low nanomolar range”.
Take `C=C(C)c1ccc([C@@H]2C[C@@H]3CC[C@@H](O3)[C@H]2C(=O)OC)cc1` (relative stereo) [Compound O-1738, 2β-carbomethoxy-3α-(4-isopropenylphenyl)-8-oxabicyclo(3.2.1)octane]: the figures for the IC50 in data set [1] (setting [5]) and in data set [3] were 912 ± 100 nM and 158 ± 23 nM, respectively. Besides, the Ki on human SERT [2] was 218 ± 45.1 nM; at human SERT [4] (setting [6]), 376 ± 74 nM. Also, the “selectivity for the serotonin over the dopamine transporter (in words)” value (from here on “selectivity for the serotonin”) in data set [3] (monkey striatum) was “moderately selective”. In data set [3] (monkey striatum), the “SERT/DAT Selectivity” value is on record as 6.
Regarding `COC(=O)[C@H]1[C@@H](c2ccc(Cl)c(Cl)c2)C[C@@H]2CC[C@H]1O2` (relative stereo) [Compound O-1072, 2-β-carbomethoxy-3-β-(3,4-dichlorophenyl)-8-oxabicyclo(3.2.1)octane], the IC50 in data set [1] was 3.88 ± 0.93 nM; in data set [3], 4.66 ± 1.24 nM. Besides, in data set [3] (monkey striatum), the “selectivity for the serotonin” value is “relatively non-selective”. Besides, the “SERT/DAT Selectivity” value in data set [3] (monkey striatum) was determined as 0.8. The same molecule came in with a Ki at human SERT [4] (setting [6]) of 10 to 20 nM. Further, the “blocked” value on human SERT [4] is “low nanomolar range”.
Consider `COC(=O)[C@H]1[C@@H](c2ccc3ccccc3c2)C[C@@H]2CC[C@H]1N2C` (relative stereo) [Compound O-1229, N-methyl-2β-carbomethoxy-3β(2′-naphthyl)-8-azabicyclo(3.2.1)octane], for which the figures for the IC50 in data set [1] and in data set [3] were 0.49 ± 0.04 nM and 2.19 ± 0.18 nM, respectively. In addition, the results for the Ki at human SERT [2] and at human SERT [4] (setting [6]) were 1.42 ± 0.78 nM and 0.14 ± 0.07 nM, respectively. Moreover, the “SERT/DAT Selectivity” value in data set [3] (monkey striatum) was found to be 0.2.
For `CC#Cc1ccc([C@@H]2C[C@@H]3CC[C@@H](O3)[C@H]2C(=O)OC)cc1` (relative stereo) [Compound O-1585, 2β-carbomethoxy-3α-(4′-propynylphenyl)-8-oxabicyclo(3.2.1)octane], the IC50 in data set [1] (setting [5]) came to 446 ± 94 nM; in data set [3] it was 152 ± 26.5 nM. The results for the Ki at human SERT [2] and on human SERT [4] (setting [6]) were 76.1 ± 10.5 nM and 56.7 ± 10.4 nM, respectively. In data set [3] (monkey striatum), the “selectivity for the serotonin” value is given as “moderately selective; also recorded: modest”. Besides, in data set [3] (monkey striatum), the “SERT/DAT Selectivity” value came out at 3.
In the case of `C=C(C)c1ccc(C2CC3CCC(O3)C2C(=O)OC)cc1` (single isomer, unassigned) [Compound O-1809, 2β-carbomethoxy-3β-(4-isopropenylphenyl)-8-oxabicyclo(3.2.1)octane], the IC50 is 1010 nM in data set [1] (setting [5]) and 10.2 ± 2.1 nM in data set [3]. Also, the values for the Ki at human SERT [2] and at human SERT [4] (setting [6]) were 9.6 ± 1.3 nM and 16 ± 4 nM, respectively. The “SERT/DAT Selectivity” value in data set [3] (monkey striatum) is 99. In addition, on human SERT [4], the “blocked” value is “low nanomolar range”.
On to `COC(=O)[C@@H]1[C@H]2CC[C@H](C2)C[C@@H]1c1ccc(Cl)c(Cl)c1` (racemic) [Compound O-1391, 2-β-carbomethoxy-3-β-(3,4-dichlorophenyl)bicyclo(3.2.1)octane], for which the IC50 in data set [1] (setting [5]) was 13.5 ± 0.9 nM; in data set [3] it was 33.9 ± 1.85 nM. The Ki amounted to 10 ± 4.3 nM at human SERT [2] and 11.1 ± 7.44 nM at human SERT [4] (setting [6]). For the same molecule, in data set [3] (monkey striatum), the “selectivity for the serotonin” value was “relatively non-selective”. Further, the “reduction of potency for the SERT on substitution of the 8-oxa with an 8-carba” value in data set [3] (monkey striatum, O-1391 versus O-1072) stood at 7 fold. For the same molecule, the “SERT/DAT Selectivity” value in data set [3] (monkey striatum) amounted to 0.4. Also, the “blocked” value on human SERT [4] is listed as “low nanomolar range”.
Take `COC(=O)C1C(c2ccc3ccccc3c2)CC2CCC1N2C` (stereo not drawn) [Compound O-1228, N-methyl-2β-carbomethoxy-3-(2′-naphthyl)-8-azabicyclo(3.2.1)octane]: in data set [1] (setting [5]), the IC50 was 0.57 ± 0.34 nM. In addition, the Ki on human SERT [2] (setting [7]) worked out at 3.26 ± 0.26 nM; at human SERT [4] (HEK-293 cells with human SERT, 20 nM (3H)serotonin, mean ± S.E.M., read-out: (3H)serotonin transport Ki), 4.57 ± 0.37 nM.
In the case of `COC(=O)[C@@H]1[C@H]2CC[C@H](C2)C[C@H]1c1ccc2ccccc2c1` (relative stereo) [Compound O-1670, 2β-carbomethoxy-3α-(2-naphthyl)-8-bicyclo(3.2.1)octane], the IC50 was found to be 21.2 ± 4.1 nM in data set [1] and 77.7 ± 13.5 nM in data set [3]. In addition, the Ki came to 303 ± 8.7 nM at human SERT [2] (setting [7]) and 425 ± 332 nM at human SERT [4]. Also, in data set [3] (monkey striatum), the “selectivity for the serotonin” value is “relatively non-selective”. Further, the “SERT/DAT Selectivity” value in data set [3] (monkey striatum) came out at 0.3.
For `COC(=O)[C@@H]1[C@H]2CC[C@H](C2)C[C@@H]1c1ccc2ccccc2c1` (relative stereo) [Compound O-1669, 2β-carbomethoxy-3β-(2-naphthyl)-8-bicyclo(3.2.1)octane], the IC50 in data set [1] amounted to 27.1 ± 0.1 nM; in data set [3], 72.5 ± 12.6 nM. In addition, the Ki at human SERT [2] is 289 ± 150 nM; on human SERT [4] (setting [6]), 28 ± 2 nM. Also, the “selectivity for the serotonin” value in data set [3] (monkey striatum) was “relatively non-selective”. Also, the “SERT/DAT Selectivity” value in data set [3] (monkey striatum) is 0.4. Moreover, the “blocked” value on human SERT [4] is “low nanomolar range”.
As for `CC#Cc1ccc([C@H]2C[C@@H]3CC[C@@H](O3)[C@H]2C(=O)OC)cc1` (relative stereo) [Compound O-1577], the melting point lay within 142 to 143 °C. In addition, the IC50 in data set [1] (setting [5]) stood at 545 ± 76 nM. This molecule also gave a Ki on human SERT [2] of 32.6 ± 7.88 nM. Also, the IC50 in data set [3] is 72.4 nM. In addition, in data set [3] (monkey striatum), the “selectivity for the serotonin” value was “modest” and the “SERT/DAT Selectivity” value is reported as 8. Moreover, the affinity on human SERT [4] (setting [6]), expressed as Ki, was 63 ± 16.8 nM.
